Values joined by “and” are separate entries in the source; they are usually repeats but may differ in a detail not shown here. Equal values may be shown once. Read-outs that look alike come from different tables or passages of the source.

We go through three molecules from publication PMC8230802, “The Effects of Food on Cannabidiol Bioaccessibility” (Molecules, 2021).

On the set-up of data set [1]: method as in PMID 27648135. The note with it: rats; cited from earlier work.
Data set [2] can be described thus: MS/MS survey of metabolites in digestion phases. It is filed as in vitro ADME. The note with it: DG, AQ and P phases, negative ion mode. As for the experimental part: To further confirm the presence of any metabolites in the DG, AQ, and P phases, an MS/MS survey was performed on negative ion mode with the inclusion list of all the masses for the expected metabolites (Table S2). The setting for TOF MSMS function was as follows: centroid data format, negative mode and polarity, mass rages from 100 to 1000, time 0 min to 25.0 min and scan time 2.1 s with inter scan time of 0.1 s. The instrument parameters were as follows: capillary 3000.0 V, sample cone 35.0 V, source temperature 100 °C and collision energy 5.0.

Data set [3] in a line: Fed state three-phase in vitro digestion of CBD (olive oil and baby food). It is filed as in vitro ADME. The note with it: for Digestive stability: CBD in DG / raw material x 100. How it is done:
For the fed in vitro digestion experiment, CBD was mixed with foods and oil. Briefly, 10 mg and 100 mg CBD were each first mixed with 0.5 g olive oil, and then added to 2 g baby food (Turkey and Gravy, Gerber, IL, USA). The oral phase samples were vortexed for 30 s followed by the gastric and intestinal phase protocols mentioned above. After the completion of the three-phase in vitro digestion procedure, 15 mL of the DG sample was collected, blanketed with nitrogen and kept at −80 °C for further analysis. The rest of the DG sample was centrifuged at 10,000× g for 1 h at 4 °C and the AQ fraction was collected, filtered, diluted in acetonitrile 1:2 (v/v) and blanketed with nitrogen and kept at −80 °C for the UPLC-MS analysis.
(§1) Diluted AQ and DG fractions were filtered using the 0.2 µm nylon filters for DG fraction and injected for analysis by ultra-performance liquid chromatography-mass spectrometry (UPLC-MS) to obtain CBD concentration values. Percent (%) recovery values were calculated for CBD using the following equation:(1) % Recovery=Concentration in AQ/Concentration in DG×100
(§2) CBD was quantified in pellet (P), digesta (DG) and aqueous (AQ) fractions by liquid chromatography—mass spectrometry. Digestive stability, the percentage recovery of CBD in DG fraction was calculated by dividing the moles of CBD quantified in DG by the moles of CBD quantified in raw material (RM) multiplied by 100. The micellarization efficiency is the percentage of CBD recovered in the AQ phase of digestion and was calculated by dividing the moles of CBD in AQ by the moles of CBD in DG multiplied by 100.

The nature of data set [4]: Fasted state three-phase in vitro digestion of CBD. It is filed as in vitro ADME. The note with it: for Micellarization efficiency: CBD in AQ / DG x 100; for Digestive stability: CBD in DG / raw material x 100. As for the experimental part:
The three-step in vitro digestion employed to mimic the human digestive tract in this study consisted of an oral phase, a gastric phase, and an intestinal phase. The method used was modified slightly from a previously described protocol. For the fasted state digestion oral phase, 10 mg and 100 mg of CBD were added to 1 mL distilled water in a 50 mL pyrex glass centrifuge tube (DAIGGER Scientific, Hamilton, NJ, USA) and mixed with 1 mL oral fluid. The mixtures were vortexed for 30 s and immediately the gastric phase of digestion was started by adding pepsin into NaHCO3 and the pH was adjusted to 2.5. The mixtures were blanketed with nitrogen gas, wrapped in parafilm, and shaken in a 37 °C incubator for 1 h in the dark at 95 rpm. Meanwhile, the intestinal phase was prepared (Table S1) by mixing bile in NaHCO3 and sonicating it for 45 min. For the intestinal phase, the pancreatin-lipase (2 mL of 2:1 ratio) was mixed into the same solution as bile salt. The enzyme solution and the bile solution were added to the tube containing the gastric phase and the pH was adjusted to 6.5 using 1N NaOH. The digestion sample tubes were blanketed with nitrogen and shaken for another 2 h at 37 °C in the dark at 95 rpm. After completion of the intestinal phase, 4 mL of the resulting Digesta (DG) was transferred into conical tubes, diluted with acetonitrile DG: Acetonitrile 1:2 (v/v), blanketed with nitrogen, and kept at −80 °C for analysis by UPLC-MS. The remaining volumes of the DG samples were centrifuged at 10,000× g at 4 °C for 60 min (Beckman L7-65 Ultracentrifuge, Beckman Instruments, Palo Alto, CA, USA). After centrifugation, the aqueous supernatant (AQ) containing the micellar fractions were filtered through the 0.22 µm pore (VWR, USA), diluted with acetonitrile AQ: Acetonitrile 1:2 (v/v) and stored at −80 °C for further analysis. The insoluble pellet was dissolved into the acetonitrile 1:2 (v/v) for further analysis.
as §1, §2

On the set-up of data set [5]: method as in PMID 6262948. The note with it: Rhesus monkeys, on average; cited from earlier work.
For data set [6] the following is noted: with sesame oil; cited from earlier work.
For a further data set, the system named is lipase. As to the kind of experiment: Lipase activity assay with pNPP substrate. It is filed as biochemical. How it is done:
The lipase, pancreatin and bile were purchased from Sigma-Aldrich. The p-nitrophenyl palmitate (pNPP), a […] compound (N2752, Sigma-Aldrich), was used as a substrate for the lipase enzyme as previously described. Upon hydrolysis of palmitate from pNPP, the resulting product is 4-nitrophenol (4-NP), and can be measured spectrophotometrically at 410 nm.
Final assay enzyme concentrations were 1:2 mg/mL lipase:pancreatin and 1:2:3 mg/mL lipase: pancreatin:bile using 96 well plates separately just as in the artificial digestion protocol. Controls consisted of phosphate buffer and lipase enzyme without substrate pNPP. Experimental wells contained substrate pNPP in phosphate buffer and the lipase enzyme. All experimental and control wells were performed in triplicate. Temperature was set at 37 °C and the spectrophotometer was set to collect kinetic data over 2 h for the lipase: pancreatin (1:2) experiment. Substrate concentrations were 0.1 mM and 1.0 mM and were made from the 10.0 mM stock solution of pNPP in isopropanol. 4-NP dilutions in phosphate buffer were used to make a standard curve ranging from 5–1000 µM.
On a separate 96 well plate, the same procedure was followed for the lipase: pancreatin: bile salt (1:2:3) experiment. Control and experimental samples were the same as mentioned above for the 1:2 mg/mL lipase: pancreatin experiment. […] After an incubation period of 30 min at 37 °C, 25 µL of the reaction mixture (supernatant) was taken and immediately mixed with 1 mL of 0.1 N NaOH in a 1 mL cuvette to stop the reaction and dilute the sample. The liberated pNP was detected at 410 nm, and bile salt interference was corrected by using a blank without substrate for background subtraction. The reaction rates for this experiment were obtained from the slope of the absorbance versus the time curve by using an extinction coefficient for the p-nitrophenol (pNP) that was determined from the absorbance of pNP as a standard solution.

In the case of `C=C(C)[C@@H]1CCC(C)=C[C@H]1c1c(O)cc(CCCCC)cc1O` [CBD, Cannabidiol], the “Increase in bioavailability by co-administration of lipids” value in data set [1] was 2.5 fold. In data set [2], the “Metabolites of CBD in digestion phases (MS/MS survey)” value is given as “No metabolites of CBD were observed”. The “Increase in CBD recovery in the micellar fraction, fed vs fasted state digestion” value in data set [3] (fed digestion compared to fasted state digestion) was found to be 22 fold. Also, the Micellarization efficiency in data set [3] (fed state digestion, 10 mg CBD, CBD in AQ / DG x 100) is 14.15 ± 0.6%; in data set [4] (10 mg CBD) it was 0.65 ± 0.7%; in data set [4] (100 mg CBD), 0.14 ± 0.1%. The Digestive stability was 91.39 ± 25% in data set [3] (fed state digestion, 10 mg CBD); 83.1 ± 25% in data set [3] (fed state digestion, 100 mg CBD); 72.99 ± 6% in data set [4] (10 mg CBD); 95.67 ± 2% in data set [4] (100 mg CBD). The recovery at 3 h, 10 mg CBD per digestion (in 0.5 g olive oil + 2 g baby food) in data set [3] (fed state digestion, 10 mg CBD, read-out: % recovery in aqueous (AQ) micellar fraction) was 12.9 ± 7%; in data set [3] (fed state digestion, 10 mg CBD, read-out: % recovery in digesta (DG)), 91.4 ± 25%; in data set [3] (fed state digestion, 10 mg CBD, read-out: % recovery in pellet (P)), 90.2 ± 18%. For the same molecule, the recovery at 3 h, 100 mg CBD per digestion (in 0.5 g olive oil + 2 g baby food) in data set [3] (fed state digestion, 100 mg CBD, read-out: % recovery in aqueous (AQ) micellar fraction) was 18.6 ± 10%; in data set [3] (fed state digestion, 100 mg CBD, read-out: % recovery in digesta (DG)) it was 83.1 ± 25%; in data set [3] (fed state digestion, 100 mg CBD, read-out: % recovery in pellet (P)), 87.9 ± 29%. Besides, the recovery at 3 h, 10 mg CBD per digestion (in 1 mL water + 1 mL oral fluid) in data set [4] (10 mg CBD, read-out: % recovery in aqueous (AQ) micellar fraction) turned out to be 0.69 ± 1.5%; in data set [4] (10 mg CBD, read-out: % recovery in digesta (DG)), 73 ± 6%; in data set [4] (10 mg CBD, read-out: % recovery in pellet (P)) it was 92.2 ± 10%. The recovery at 3 h, 100 mg CBD per digestion (in 1 mL water + 1 mL oral fluid) in data set [4] (100 mg CBD, read-out: % recovery in aqueous (AQ) micellar fraction) was determined as 0.15 ± 1%; in data set [4] (100 mg CBD, read-out: % recovery in digesta (DG)), 95.7 ± 2%; in data set [4] (100 mg CBD, read-out: % recovery in pellet (P)) it was 74.1 ± 1.3%. For the same molecule, the Oral bioavailability in data set [5] is listed as 16%. Besides, in data set [6], the “Recovery / bioavailable in the micellar fraction” value is listed as 30%.

`CCCCCc1cc(O)c2c(c1)OC(C)(C)[C@@H]1CCC(C)=C[C@@H]21` [THC, Δ9-tetrahydrocannabinol]: the “Increase in bioavailability by co-administration of lipids” value in data set [1] was 3 fold. Also, the “Recovery / bioavailable in the micellar fraction” value in data set [6] was 30%.

As for `CCCCCCCCCCCCCCCC(=O)Oc1ccc([N+](=O)[O-])cc1` [pNPP, p-nitrophenyl palmitate], the “% mole conversion of pNPP to NP” value with lipase (0.1 mM pNPP, 1:2:3 lipase:pancreatin:bile) was 95.5 ± 7.6%; with lipase (0.1 mM pNPP, 1:2 lipase:pancreatin), 93.6 ± 0.3%; with lipase (1 mM pNPP, 1:2:3 lipase:pancreatin:bile) it was 58.6% and 58.6 ± 5.7%; in the data set on lipase (1 mM pNPP, 1:2 lipase:pancreatin), 20.6% and 20.6 ± 0.07%.
